Key:
[1] = background statement; cited from earlier work
[2] = dissolution rate analysis by dissolution tester (Weibull model); type: physicochemical
Procedure: The microparticle morphology and size are detected by the scanning electron microscopy (SEM). The particle size distribution (PSD) is analyzed by the image analysis software “Image J”. The crystal properties are analyzed by the X-Ray diffractometer. The changes in the crystal form are detected by the differential scanning calorimetry (DSC). […] The analyses of the dissolution rate are performed by the dissolution tester.

For CC(=O)Nc1nnc(S(N)(=O)=O)s1 [acetazolamide bulk drug, acetazolamide], the “particle size of commercial acetazolamide drug” value [1] is given as “about 20 μm” and the dissolution rate coefficient [2] is given as 0.0626 min⁻¹.

From patent US20120121708A1 (National Taiwan University, priority 2010, published 2012)
